Where two headings read alike, the source gives them in different places. One block for each molecule: values may come before it.
Legend:
[1] = Bioavailability following oral administration; type: in vivo
[2] = Plasma concentration after administration to an animal; type: in vivo
Aqueous solubility = type: physicochemical
TRPV1 receptor = TRPV1 receptor (Rattus norvegicus (Rat), UniProt O35433); test: Capsaicin-induced eye wipe test; type: in vivo; conditions: for number of capsaicin-induced eye wipes: pre-administration value 24
Experimental: (§1) Each experiment uses rats weighing between 200-260 g at the start of the experiment. The rats are group-housed and have free access to food and water at all times, except prior to oral administration of a compound of formula I when food is removed for 16 hours before dosing. A control group acts as a comparison to rats treated with a compound of formula I. The control group is administered the carrier for the compound of formula I. The volume of carrier administered to the control group is the same as the volume of carrier and compound of formula I administered to the test group.
To assess the effect of compounds of formula I on TRPV1 receptor-mediated pain, the capsaicin-induced eye wipe test is used (N. R. Gavva et al., “AMG 9810 [(E)-3-(4-t-Butylphenyl)-N-(2,3-dihydrobenzo[b][1,4]dioxin-6-yl)acrylamide], a Novel Vanilloid Receptor 1 (TRPV1) Antagonist with Antihyperalgesic Properties”, J. Pharmacol. Exp. Ther. 313:474-484 (2005)). The eye wipe test is a reliable high-throughput test of the effect of TRPV1 antagonists. Rats are given a single injection of 1, 3, 10 or 30 mg/kg of either a compound of formula I; 30 mg/kg of a control selected from Celebrex, indomethacin or naproxen; or carrier. At 1, 3 or 5 hours after drug administration, […] of a 100 μM capsaicin solution (in 10% EtOH/PBS) is instilled in one eye of each animal with a pipette. The number of forelimb movements (touching or wiping of the capsaicin-treated eye) are counted during a 2 minute period following instillation of capsaicin into the eye.

human TRPV1 [3] = biological target: T1, human TRPV1 (Homo sapiens (Human), UniProt Q8NER1); test: pH-based assay, Protocol 2 (hpH-CHO); type: cell-based; conditions: TRPV1/CHO cells, pH 5.0-5.1; mean ± SEM; read-out: TRPV1 IC50 Potency Human pH CHO (hpH-CHO)
Excerpt: For Protocol 2, a Chinese Hamster Ovary cell line (CHO) that has been engineered to constitutively express human recombinant TRPV1 was used (TRPV1/CHO cells). The TRPV1/CHO cell line was generated as described below.
The resulting PCR products were purified from agarose gels using Gel Band Purification Kit (GE Healthcare Bioscience) and were subcloned into pCR-Blunt vector (Invitrogen). The cloned cDNA was fully sequenced using a fluorescent dye-terminator reagent (BigDye Terminator ver3.1 Cycle Sequencing Kit, Applied Biosystems) and ABI Prism 3100 genetic analyzer (Applied Biosystems). The pCR-Blunt vector containing the hTRPV1 cDNA was subjected to restriction digestion with EcoR1. […] The sequence of the cDNA encoding TRPV1 is available at GenBank accession number AJ277028.
CHO-K1 cells were maintained in growth medium consisting of α-MEM, 10% FBS (Hyclone), and 100 IU/mL of penicillin-100 μg/mL of streptomycin mixed solution (Nacalai Tesque, Japan) at 37° C. in an environment of humidified 95% air and 5% CO2. […] 24 hr after transfection, neomycin-resistant cells were selected using 1 mg/mL G418 (Nacalai Tesque). […]
(5) The Fura-2 fluorescent intensity was monitored at a wavelength of 340 nm and at 380 nm, respectively, at a rate of 0.5 Hz for a total of 240 seconds.

human TRPV1 [4] = biological target: T1, human TRPV1; test: Capsaicin-based assay, Protocol 2 (hCAP-CHO); type: cell-based; conditions: TRPV1/CHO cells, 100 nM capsaicin; mean ± SEM; read-out: TRPV1 IC50 Potency Human Capsaicin CHO (hCAP-CHO)
Excerpt: The TRPV1/CHO cell line was generated as described below. […] The resulting PCR products were purified from agarose gels using Gel Band Purification Kit (GE Healthcare Bioscience) and were subcloned into pCR-Blunt vector (Invitrogen). The cloned cDNA was fully sequenced using a fluorescent dye-terminator reagent (BigDye Terminator ver3.1 Cycle Sequencing Kit, Applied Biosystems) and ABI Prism 3100 genetic analyzer (Applied Biosystems). The pCR-Blunt vector containing the hTRPV1 cDNA was subjected to restriction digestion with EcoR1. The restriction fragment was subcloned into expression vector pcDNA3.1(-) (Invitrogen) and named pcDNA3.1(-)-hVR1 plasmid. The sequence of the cDNA encoding TRPV1 is available at GenBank accession number AJ277028. […] The cells were transfected with the pcDNA3.1(-)-hVR1 plasmid using FuGENE6 (Roche) according to the manufacturer's protocol. 24 hr after transfection, neomycin-resistant cells were selected using 1 mg/mL G418 (Nacalai Tesque). […] The cells expressing hTRPV1 were cultured in the growth medium supplemented with 1 mg/mL G418. […] Subsequently, the cells were loaded by incubation in 0.1 mL of wash buffer containing Fluo-4 at 3 μM final concentration. After 1 hour, the cells were washed twice with 0.2 mL wash buffer and resuspended in 0.1 mL wash buffer. The plates were then transferred to a Fluorescence Imaging Plate Reader (Molecular Devices). Fluorescence intensity was monitored for 15 seconds to establish a baseline. […] The final concentration of the compound was adjusted to range from 100 μM to 1.5625 μM. […] Data were collected over the entire time course and analyzed using Excel and the curve-fitting formula GraphPad Prism.

[5] = test system: FCA-induced inflammation of the rat hind paw; test: FCA model of inflammatory pain (thermal hyperalgesia, plantar test); type: in vivo; conditions: for ED50: read-out: ED50 for reversal of FCA-induced thermal hyperalgesia
Experimental: as §1
To assess the actions of the compounds of formula I on the treatment or prevention of inflammatory pain the Freund's complete adjuvant (“FCA”) model of inflammatory pain is used. FCA-induced inflammation of the rat hind paw is associated with the development of persistent inflammatory mechanical and thermal hyperalgesia and provides reliable prediction of the anti-hyperalgesic action of clinically useful analgesic drugs (L. Bartho et al., “Involvement of Capsaicin-sensitive Neurones in Hyperalgesia and Enhanced Opioid Antinociception in Inflammation,” Naunyn-Schmiedeberg's Archives of Pharmacol. 342:666-670 (1990)). The left hind paw of each animal is administered a 50 μL intraplantar injection of 50% FCA. 24 hour post injection, the animal is assessed for response to noxious mechanical stimuli by determining the PWT, or to noxious thermal stimuli by determining the PWL, as described below. […] Responses to noxious mechanical or thermal stimuli are then determined 1, 3, 5 and 24 hours post administration. […]
The plantar test can be used to assess thermal hyperalgesia. For this test, hind paw withdrawal latencies (PWL) to a noxious thermal stimulus are determined using a plantar test apparatus (commercially available from Ugo Basile of Italy) following the technique described by K. Hargreaves et al., “A New and Sensitive Method for Measuring Thermal Nociception in Cutaneous Hyperalgesia,” Pain 32(1):77-88 (1988). […] Three latencies are determined at each time point and averaged. […]

T1 sequence (Q8NER1 whole entry): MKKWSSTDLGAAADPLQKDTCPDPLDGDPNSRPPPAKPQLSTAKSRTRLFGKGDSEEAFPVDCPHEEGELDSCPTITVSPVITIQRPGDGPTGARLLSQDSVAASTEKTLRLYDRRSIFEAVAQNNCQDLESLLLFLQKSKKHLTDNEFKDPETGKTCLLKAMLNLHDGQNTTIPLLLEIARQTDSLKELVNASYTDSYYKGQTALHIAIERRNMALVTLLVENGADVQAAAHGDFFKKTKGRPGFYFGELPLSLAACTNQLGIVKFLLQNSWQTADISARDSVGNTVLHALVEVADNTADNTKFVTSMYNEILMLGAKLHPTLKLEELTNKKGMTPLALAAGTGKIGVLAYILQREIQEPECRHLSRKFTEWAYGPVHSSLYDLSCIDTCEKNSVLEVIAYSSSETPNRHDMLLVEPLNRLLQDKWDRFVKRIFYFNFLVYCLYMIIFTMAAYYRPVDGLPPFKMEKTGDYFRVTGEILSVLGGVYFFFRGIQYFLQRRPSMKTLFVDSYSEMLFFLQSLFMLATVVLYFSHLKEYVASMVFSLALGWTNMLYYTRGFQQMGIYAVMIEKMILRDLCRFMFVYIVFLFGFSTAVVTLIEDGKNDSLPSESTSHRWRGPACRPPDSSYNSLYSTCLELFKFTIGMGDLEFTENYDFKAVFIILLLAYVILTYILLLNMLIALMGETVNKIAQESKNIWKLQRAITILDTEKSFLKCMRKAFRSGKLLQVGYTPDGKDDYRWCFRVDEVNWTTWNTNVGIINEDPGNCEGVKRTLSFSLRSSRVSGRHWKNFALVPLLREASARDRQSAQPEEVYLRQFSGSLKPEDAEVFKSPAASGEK
Chain of TRPV1 receptor (O35433 whole entry): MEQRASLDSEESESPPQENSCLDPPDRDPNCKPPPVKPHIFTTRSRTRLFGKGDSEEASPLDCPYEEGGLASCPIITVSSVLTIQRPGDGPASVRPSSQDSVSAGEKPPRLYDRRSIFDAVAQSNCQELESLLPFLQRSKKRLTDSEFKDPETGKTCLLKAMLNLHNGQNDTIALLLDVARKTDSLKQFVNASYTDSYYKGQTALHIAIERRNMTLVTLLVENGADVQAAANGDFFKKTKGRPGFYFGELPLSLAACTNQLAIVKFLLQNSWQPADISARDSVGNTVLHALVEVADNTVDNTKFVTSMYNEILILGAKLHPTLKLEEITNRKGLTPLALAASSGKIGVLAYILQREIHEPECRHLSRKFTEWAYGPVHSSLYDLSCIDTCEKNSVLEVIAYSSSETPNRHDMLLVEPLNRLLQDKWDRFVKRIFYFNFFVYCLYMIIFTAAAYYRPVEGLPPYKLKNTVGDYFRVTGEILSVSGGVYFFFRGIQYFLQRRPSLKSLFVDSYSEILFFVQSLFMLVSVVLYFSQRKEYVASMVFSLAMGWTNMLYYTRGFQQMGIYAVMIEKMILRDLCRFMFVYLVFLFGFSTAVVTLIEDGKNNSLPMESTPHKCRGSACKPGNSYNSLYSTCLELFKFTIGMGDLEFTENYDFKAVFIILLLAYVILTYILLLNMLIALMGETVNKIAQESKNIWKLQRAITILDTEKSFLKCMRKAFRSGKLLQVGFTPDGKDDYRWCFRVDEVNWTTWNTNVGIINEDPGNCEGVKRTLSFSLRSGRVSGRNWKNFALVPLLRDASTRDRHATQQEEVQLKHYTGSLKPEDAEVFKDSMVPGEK

bioavailable following oral administration [1]: 68.9%
time to maximum plasma concentration after administration ([2]; animal plasma): 1.85 h
maximum plasma concentration relative to the maximum for compound 200 ([2]; animal plasma, for a given dose): 5.3 times
plasma concentration up to 24 h compared with compound 200 ([2]; up to 24 h): consistently greater
SMILES: CC(O)(CO)c1cnc(C2=CCN(C(=O)Nc3ccc(C(F)(F)F)cc3)CC2)c(Cl)c1 (stereo not drawn) [Compound R6]

bioavailability ([1]; in vivo, read-out: bioavailable following oral administration): 70.7%
SMILES: O=C(Nc1ccc(C(F)(F)F)cn1)N1CCC(F)(c2ncc([C@H](O)CO)cc2Cl)CC1 [Compound G1]

The remaining lines, values behind:

SMILES: O=C(Nc1ccc(C(F)(F)F)cc1)N1CCC(F)(c2ncc([C@H](O)CO)cc2Cl)CC1 [Compound N1, (S)-4-(3-chloro-5-(1,2-dihydroxyethyl)pyridin-2-yl)-4-fluoro-N-(4-(trifluoromethyl)phenyl)piperidine-1-carboxamide]
aqueous solubility at pH 1.2 (Aqueous solubility): > 50 μM
aqueous solubility at pH 6.8 (Aqueous solubility): 28.0 μM
decrease of eye wipes relative to pre-administration value (TRPV1 receptor; 1 hour after administration): 87.5%
number of capsaicin-induced eye wipes (TRPV1 receptor; 1 hour after administration): 3
decrease of eye wipes relative to pre-administration value (TRPV1 receptor; 3 hours after administration): 96%
number of capsaicin-induced eye wipes (TRPV1 receptor; 3 hours after administration): 1
decrease of eye wipes relative to pre-administration value (TRPV1 receptor; 5 hours after administration): 92%
number of capsaicin-induced eye wipes (TRPV1 receptor; 5 hours after administration): 2

SMILES: N#CCc1cnc(C2=CCN(C(=O)Nc3ccc(C(F)(F)F)cc3)CC2)c(Cl)c1 [Compound E6, 4-(3-chloro-5-(cyanomethyl)pyridin-2-yl)-N-(4-(trifluoromethyl)phenyl)-5,6-dihydropyridine-1(2H)-carboxamide]
IC50 (human TRPV1 [3]): 164 nM
aqueous solubility at pH 1.2 (Aqueous solubility): 27.2 μM
aqueous solubility at pH 6.8 (Aqueous solubility): 9.0 μM

SMILES: O=C(Nc1ccc(OC(F)(F)F)c(Cl)c1)N1CC=C(c2ncc([C@H](O)CO)cc2Cl)CC1 [Compound Y1, (S)-3-Chloro-5-(1,2-dihydroxy-ethyl)-3′,6′-dihydro-2′H-[2,4]bipyridinyl-1′-carboxylic acid (3-chloro-4-trifluoromethoxy-phenyl)amide]
IC50 (human TRPV1 [4]): 74.7 ± 18.4 nM
IC50 (human TRPV1 [3]): 13.5 ± 1.2 nM

SMILES: O=C(Nc1ccc(C(F)(F)F)c(Cl)c1)N1CC=C(c2ncc([C@H](O)CO)cc2Cl)CC1 [Compound D2, (S)-3-Chloro-5-(1,2-dihydroxy-ethyl)-3′,6′-dihydro-2′H-[2,4]bipyridinyl-1′-carboxylic acid (3-chloro-4-trifluoromethyl-phenyl)amide]
ED50 ([5]; 3 hours after administration): 0.95 mg/kg
maximum % reversal of FCA-induced thermal hyperalgesia ([5]; 5 hours after administration): 78.7%
ED50 ([5]; 5 hours after administration): 1.63 mg/kg

— US9365563B2, “TRPV1 antagonists including dihydroxy substituent and uses thereof” (Purdue Pharma L.P., priority 2007, dated 2016)
